In US20140179786A1, “Treatment of Alzheimer's Disease Using Tolfenamic Acid” (Board of Governors for Higher Education, State of Rhode …, priority 2012, published 2014):

Legend:
tau gene = experiment: tau mRNA expression in mouse cortex by real time PCR; type: in vivo, mice; conditions: 0, 5 and 50 mg/kg/day for 34 days; vs control; dose of the value not stated
Protocol: (§1) It has been discovered that tolfenamic acid lowers the levels of the transcription factor Sp1, and consequently reduce the levels of an Sp1 target gene, APP, along with its pathogenic cleavage product Aβ. […] Therefore, in the study design 0, 5 and 50 mg/kg/day tolfenamic acid was administered for 34 days. […] Total mRNA levels were analyzed by real time PCR with β-actin as endogenous control. Protein expression was measured by Western blot analysis and quantified as a ratio to the house keeping protein β-actin (antibodies: T9450, Sigma-Aldrich, MO; 4970, Cell Signaling, MA). […] Values shown are the mean ±SEM.

tau protein = experiment: total tau protein levels in mouse cortex by Western blot; type: in vivo, mice; conditions: 0, 5 and 50 mg/kg/day for 34 days; vs control; p<0.05; dose of the value not stated
Protocol: as §1

CDK5 [1] = experiment: CDK5 gene expression in the cerebral cortex; type: in vivo, mice; conditions: daily administration for a month; 5 and 50 mg/kg groups vs control, p<0.05
Protocol: (§2) Since Sp1 also regulates CDK5 activators, the effects of tolfenamic acid on CDK5 were also tested. […] 3A (using one-way ANOVA F(2,13)=59.647, p=2.8×10^−7 Tukey-Kramer post-test p<0.05 for the C vs the 5 mg/kg group and for the C vs the 50 mg/kg group). […] When comparing the 50 mg/kg dose group to the control however, by Tukey-Kramer test, the 40% lowering in CDK5 from control was statistically significant (p<0.05).

CDK5 [2] = experiment: CDK5 protein levels after tolfenamic acid treatment; type: in vivo, mice
Protocol: as §2

[3] = system: tau phosphorylated at Ser 235; experiment: P-tau at Ser 235 by Western blotting; type: in vivo, mice; conditions: 5 and 50 mg/kg groups vs control, p<0.05
Protocol: (§3) As phosphorylation of tau affects its function and its ability to bind to microtubules, it was important to test how phosphorylated tau is affected by the treatment. P-tau levels were analyzed by Western blotting using specific antibodies. P-tau at Ser 235 (as shown in FIG. 4A) and P-tau at Thr 181 (as shown in FIG. 4B) were lowered by both doses of tolfenamic acid as shown in FIGS. 4A and 4B. Tau phosphorylated at Ser 235 was lowered by about 15% as indicated by one-way ANOVA (F(2,11)=6.105, p=0.0165), Tukey-Kramer post-test p<0.05 for the C vs the 5 mg/kg group and for the C vs the 50 mg/kg group. P-tau at Thr 181 was lowered by about 30%, one-way ANOVA F(2,10)=7.272, p=0.0112, Tukey-Kramer post-test p<0.05 for the C vs the 5 mg/kg group and for the C vs the 50 mg/kg group.

[4] = system: tau phosphorylated at Thr 181; experiment: P-tau at Thr 181 by Western blotting; type: in vivo, mice; conditions: 5 and 50 mg/kg groups vs control, p<0.05
Protocol: as §3

[5] = system: homozygous APP YAC transgenic mice, line R1.40; experiment: Morris water maze, learning and long-term memory; type: in vivo
Protocol: In order to examine the ability of tolfenamic acid to improve the learning and memory deficits in AD transgenic mice model, male and female homozygous APP YAC transgenic, line R1.40, and wild type C57BL/6 mice aging between 20-24 months were used. Four groups of similar age and gender variation were administered vehicle or tolfenamic acid daily via oral gavages for 34 days; one transgenic group was administered 5 mg/kg/day tolfenamic acid in corn oil (n=7); the second transgenic group was administered 50 mg/kg/day tolfenamic acid in corn oil (n=7), the third transgenic group was administered corn oil, the vehicle, and the last group which consisted of wild type C57BL/6 mice was administered vehicle (n=8). After 14 days of daily dosing, mice were tested in Morris water maze. In this task, the mice had to locate the hidden platform by learning multiple spatial relationships between the platform and the distal extra-maze cues. On the first day, mice received a habituation trial in which they were allowed to swim freely for 60 seconds. On the following day and for a total of 8 days, mice received training sessions of 3 trials daily. The starting position for each trial was randomly assigned between the four possible positions while the platform position was fixed in each trial. Each animal was allowed to swim until they find the immersed hidden platform or for a maximum of 60 seconds. […]

[6] = system: homozygous APP YAC transgenic mice, line R1.40; experiment: Y-maze spontaneous alternation, working memory; type: in vivo; conditions: day 33
Protocol: In order to examine the ability of tolfenamic acid to improve the learning and memory deficits in AD transgenic mice model, male and female homozygous APP YAC transgenic, line R1.40, and wild type C57BL/6 mice aging between 20-24 months were used. Four groups of similar age and gender variation were administered vehicle or tolfenamic acid daily via oral gavages for 34 days; one transgenic group was administered 5 mg/kg/day tolfenamic acid in corn oil (n=7); the second transgenic group was administered 50 mg/kg/day tolfenamic acid in corn oil (n=7), the third transgenic group was administered corn oil, the vehicle, and the last group which consisted of wild type C57BL/6 mice was administered vehicle (n=8). Upon conducting the 8 acquisition sessions, probe trials on Day 1 and Day 11 following the last day of training were performed to assess the long-term memory retention by studying the preference of the mice to the correct quadrant that contained the hidden platform. On day 33, mice were tested for spontaneous alternation in Y-maze, defined as the percentage of the number of arm entries different from the previous two entries divided by the total arm entries minus two. Finally, on Day 35, mice were euthanized and brain tissue was removed and stored at −80° C.

## Cc1c(Cl)cccc1Nc1ccccc1C(=O)O [tolfenamic acid]
Tau gene
  lowering of tau mRNA expression: 48%
Tau protein
  reduction of total tau protein levels: 46%
CDK5 [1]
  lowering of CDK5 gene expression in the cerebral cortex: about 50%
CDK5 [2]; 50 mg/kg dose group vs control, Tukey-Kramer p<0.05
  lowering in CDK5 levels from control: 40%
CDK5 [2]; all dose groups, one-way ANOVA F(2,8)=4.086, p=0.059
  CDK5 levels, lowering trend by one-way ANOVA: not significant
[3]
  lowering of tau phosphorylated at Ser 235: about 15%
[4]
  lowering of P-tau at Thr 181: about 30%
[5]; 5 and 50 mg/kg/day, Day 1 and 11 following the 8 daily training sessions
  % time spent in the target quadrant, probe trials (long-term memory retention): significant increase
[5]; both doses (5 and 50 mg/kg/day), oral gavage, transgenic mice 20-24 months
  spatial learning profile (escape latency) in daily trials: improved
[6]; 5 mg/kg/day
  improvement in the behavioral profile (spontaneous alternation, Y-maze): did not reach significance
[6]; 50 mg/kg/day
  increase in the spontaneous alternation ratio in Y-maze: significant
